Experimental data published in patent publication US9238603B1, “Batch process for the preparation of cis-2,2,4,4-tetramethylcyclobutane-1,3-diol” (EASTMAN CHEMICAL COMPANY, priority 2014, dated 2016).

Experiment: cis/trans solubility ratio of 2,2,4,4-tetramethylcyclobutane-1,3-diol in a solvent
Assay type: physicochemical
Procedure: The definition of cis/trans 2,2,4,4-tetramethylcyclobutane-1,3-diol solubility ratio is also known to one of ordinary skill in the art; in one embodiment, the cis/trans 2,2,4,4-tetramethylcyclobutane-1,3-diol solubility ratio can be defined as the ratio of the cis isomer solubility limit divided by the trans isomer solubility limit at a given temperature for a given solvent or solvents. For example, the cis/trans solubility ratio in water at 80° C. is about 1.0. For MIBC, the cis/trans solubility ratio at 80° C. is about 0.74.

With `CC1(C)C(O)C(C)(C)C1O` (centres unmarked) [2,2,4,4-tetramethylcyclobutane-1,3-diol] the “cis/trans solubility ratio (cis isomer solubility limit divided by trans isomer solubility limit)” value (in MIBC at 80° C.) was “about 0.74” and the “cis/trans solubility ratio (cis isomer solubility limit divided by trans isomer solubility limit)” value (in water at 80° C.) was “about 1.0”.
